Assay results taken from patent US9163015B2, “Pyrazolopyridine, pyrarolopyrazine, pyrazolopyrimidine, pyrazolothiophene and pyrazolothiazole compounds as MGLUR4 allosteric potentiators, compositions, and methods of treating neurological dysfunction” (Vanderbilt University, priority 2010, dated 2015).

biological target: human mGluR4 (Homo sapiens (Human), UniProt Q14833); experiment: mGluR4 potentiation assay, CHO cells transfected with human mGluR4, Ca2+-sensitive fluorescent dye, EC20 agonist; assay type: cell-based; details: potentiation of mGluR4; table does not state human or rat receptor
Protocol: The disclosed compounds and compositions can be evaluated for their ability to act as a potentiator of metabotropic glutamate receptor activity, in particular mGluR4 activity, by any suitable known methodology known in the art. For example, Chinese Hamster Ovary (CHO) cells transfected with human mGluR4 or HEK cells co-transfected with rat mGluR4 and the G-protein regulated Inwardly Rectifying Potassium channel (GIRK) were plated in clear bottom assay plates for assay in a Hamamatsu FDSS Fluorometric Plate Reader. The cells were loaded with either a Ca2+-sensitive fluorescent dye or the thallium responsive dye and the plates were washed and placed into a suitable kinetic plate reader. For human mGluR4 assays, a fluorescence baseline was established for 3-5 seconds, the disclosed compounds were then added to the cells, and the response in cells was measured. Approximately two and a half minutes later, a concentration of mGluR4 orthosteric agonist (e.g. glutamate or L-AP4) eliciting approximately 20% (EC20) of the maximal agonist response was added to the cells, and the response was measured. Two minutes later, a concentration of mGluR4 agonist (e.g. glutamate or L-AP4) eliciting 80% (EC80) of the maximal agonist response was added to the cells, and the response was measured. For rat mGluR4/GIRK experiments, a baseline was established for approximately five seconds, disclosed compounds were added, and either an EC20 or EC80 concentration of agonist was added approximately two and one half minutes later.
The above described assay operated in two modes. In the first mode, a range of concentrations of the disclosed compounds are added to cells, followed by a single fixed concentration of agonist. If the compound acts as a potentiatior, an EC50 value for potentiation and a maximum extent of potentiation by the compound at this concentration of agonist is determined by non-linear curve fitting. If the compound acts as a noncompetitive antagonist, an IC50 value is determined by non-linear curve fitting. In the second mode, several fixed concentrations of the disclosed compounds are added to various wells on a plate, followed by a range in concentrations of agonist for each concentration of disclosed compound. The EC50 values for the agonist at each concentration of compound are determined by non-linear curve fitting. A decrease in the EC50 value of the agonist with increasing concentrations of the sample compound (a leftward shift of the agonist concentration-response curve) is an indication of the degree of mGluR4 potentiation at a given concentration of the sample compound. A decrease in the maximal response of the agonist with increasing concentrations of the sample compounds, with or without a rightward shift in agonist potency, is an indication of the degree of noncompetitive antagonism at mGluR4. The second mode also indicates whether the sample compounds also affect the maximum response to mGluR4 to agonists.

Sequence of human mGluR4 (Q14833 33-912): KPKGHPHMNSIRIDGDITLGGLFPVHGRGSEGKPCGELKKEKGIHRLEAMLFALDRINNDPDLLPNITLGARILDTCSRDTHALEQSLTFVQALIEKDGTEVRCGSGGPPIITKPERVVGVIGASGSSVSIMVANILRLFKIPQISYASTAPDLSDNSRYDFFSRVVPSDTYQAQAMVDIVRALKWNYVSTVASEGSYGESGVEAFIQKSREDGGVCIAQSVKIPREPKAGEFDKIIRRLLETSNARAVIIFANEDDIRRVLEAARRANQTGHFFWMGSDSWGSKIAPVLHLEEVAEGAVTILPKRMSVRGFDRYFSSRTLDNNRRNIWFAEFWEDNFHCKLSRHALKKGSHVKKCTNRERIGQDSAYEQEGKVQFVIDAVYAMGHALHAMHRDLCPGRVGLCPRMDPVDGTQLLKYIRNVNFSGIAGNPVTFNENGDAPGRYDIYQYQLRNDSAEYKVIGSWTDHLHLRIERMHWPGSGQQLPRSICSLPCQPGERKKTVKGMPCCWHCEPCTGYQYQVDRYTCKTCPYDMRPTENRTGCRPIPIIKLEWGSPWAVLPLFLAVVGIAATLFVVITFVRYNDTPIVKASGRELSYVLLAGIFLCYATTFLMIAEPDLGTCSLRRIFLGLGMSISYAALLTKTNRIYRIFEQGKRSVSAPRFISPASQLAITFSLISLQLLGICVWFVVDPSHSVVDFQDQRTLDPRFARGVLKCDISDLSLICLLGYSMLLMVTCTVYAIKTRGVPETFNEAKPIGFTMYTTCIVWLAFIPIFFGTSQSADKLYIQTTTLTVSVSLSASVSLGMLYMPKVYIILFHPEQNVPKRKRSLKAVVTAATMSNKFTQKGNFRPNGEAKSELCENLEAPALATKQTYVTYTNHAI

Compound	EC50 [nM]
Clc1cccc(Nc2n[nH]c3cccnc23)c1 [Example 1, N-(3-chlorophenyl)-1H-pyrazolo[4,3-b]pyridin-3-amine]	138
FC(F)(F)c1cccc(Nc2n[nH]c3cccnc23)c1 [Example 3, N-(3-(trifluoromethyl)phenyl)-1H-pyrazolo[4,3-b]pyridin-3-amine]	145
Fc1cncc(Nc2n[nH]c3cccnc23)c1 [Example 4, N-(5-fluoropyridin-3-yl)-1H-pyrazolo[4,3-b]pyridin-3-amine]	9180
Fc1ccc(Nc2n[nH]c3cccnc23)cc1F [Example 5, N-(3,4-difluorophenyl)-1H-pyrazolo[4,3-b]pyridin-3-amine]	644
COc1cc(Nc2n[nH]c3cccnc23)ccc1Cl [Example 6, N-(4-chloro-3-methoxyphenyl)-1H-pyrazolo[4,3-b]pyridin-3-amine]	1110
Cc1cc(Nc2n[nH]c3cccnc23)ccc1Cl [Example 7, N-(4-chloro-3-methylphenyl)-1H-pyrazolo[4,3-b]pyridin-3-amine]	164
COc1ccc(Nc2n[nH]c3cccnc23)cc1Cl [Example 8, N-(3-chloro-4-methoxyphenyl)-1H-pyrazolo[4,3-b]pyridin-3-amine]	282
FC(F)Oc1cccc(Nc2n[nH]c3cccnc23)c1 [Example 9, N-(3-(difluoromethoxy)phenyl)-1H-pyrazolo[4,3-b]pyridin-3-amine]	254
COc1ccc(Nc2n[nH]c3cccnc23)cc1OC(F)F [Example 10, N-(3-(difluoromethoxy)-4-methoxyphenyl)-1H-pyrazolo[4,3-b]pyridin-3-amine]	885
COc1cc(Nc2n[nH]c3cccnc23)ccc1F [Example 11, N-(4-fluoro-3-methoxyphenyl)-1H-pyrazolo[4,3-b]pyridin-3-amine]	1030
Fc1cccc(Nc2n[nH]c3cccnc23)c1 [Example 12, N-(3-fluorophenyl)-1H-pyrazolo[4,3-b]pyridin-3-amine]	584
Clc1ccnc(Nc2n[nH]c3cccnc23)c1 [Example 13, N-(4-chloropyridin-2-yl)-1H-pyrazolo[4,3-b]pyridin-3-amine]	284
Clc1cncc(Nc2n[nH]c3cccnc23)c1 [Example 14, N-(5-chloropyridin-3-yl)-1H-pyrazolo[4,3-b]pyridin-3-amine]	353
Clc1ccc(Nc2n[nH]c3cccnc23)cn1 [Example 15, N-(6-chloropyridin-3-yl)-1H-pyrazolo[4,3-b]pyridin-3-amine]	5500
Fc1ccc(Cl)cc1Nc1n[nH]c2cccnc12 [Example 16, N-(5-chloro-2-fluorophenyl)-1H-pyrazolo[4,3-b]pyridin-3-amine]	116
Fc1c(Cl)cccc1Nc1n[nH]c2cccnc12 [Example 17, N-(3-chloro-2-fluorophenyl)-1H-pyrazolo[4,3-b]pyridin-3-amine]	623
Cc1cccc(Nc2n[nH]c3cccnc23)c1 [Example 18, N-(m-tolyl)-1H-pyrazolo[4,3-b]pyridin-3-amine]	51.4
COc1cccc(Nc2n[nH]c3cccnc23)c1 [Example 19, N-(3-methoxyphenyl)-1H-pyrazolo[4,3-b]pyridin-3-amine]	169
c1ccc(Nc2n[nH]c3cccnc23)cc1 [Example 20, N-phenyl-1H-pyrazolo[4,3-b]pyridin-3-amine]	1440
N#Cc1ccc(Nc2n[nH]c3cccnc23)cc1Cl [Example 21, 4-((1H-pyrazolo[4,3-b]pyridin-3-yl)amino)-2-chlorobenzonitrile]	93
FC(F)(F)c1ccc(Nc2n[nH]c3cccnc23)cc1Cl [Example 22, N-(3-chloro-4-(trifluoromethyl)phenyl)-1H-pyrazolo[4,3-b]pyridin-3-amine]	2150
Clc1cc(Nc2n[nH]c3cccnc23)ccn1 [Example 23, N-(2-chloropyridin-4-yl)-1H-pyrazolo[4,3-b]pyridin-3-amine]	1490
Clc1cc(Nc2n[nH]c3cccnc23)ccc1Oc1ncccn1 [Example 24, N-(3-chloro-4-(pyrimidin-2-yloxy)phenyl)-1H-pyrazolo[4,3-b]pyridin-3-amine]	116
Clc1cccc(Nc2c[nH]c3cccnc23)c1 [Example 25, N-(3-chlorophenyl)-1H-pyrrolo[3,2-b]pyridin-3-amine]	6360
Fc1ccc(Nc2n[nH]c3cncnc23)cc1Cl [Example 26, N-(3-chloro-4-fluorophenyl)-1H-pyrazolo[4,3-d]pyrimidin-3-amine]	3070
Clc1cc(N(c2ncccn2)c2n[nH]c3cccnc23)ccc1Oc1ncccn1 [Example 27, N-(3-chloro-4-(pyrimidin-2-yloxy)phenyl)-N-(pyrimidin-2-yl)-1H-pyrazolo[4,3-b]pyridin-3-amine]	9070
Fc1ccc(Nc2n[nH]c3nccnc23)cc1Cl [Example 28, N-(3-chloro-4-fluorophenyl)-1H-pyrazolo[3,4-b]pyrazin-3-amine]	156
CC(C)C1CCC(Nc2n[nH]c3cccnc23)CC1 (stereo not drawn) [Example 29, N-(4-isopropylcyclohexyl)-1H-pyrazolo[4,3-b]pyridin-3-amine]	5220

More lines, now with the values ahead:

EC50 [nM]	Compound
2380	Clc1cc(Nc2n[nH]c3cccnc23)cnc1N1CCOCC1 [Example 30, N-(5-chloro-6-morpholinopyridin-3-yl)-1H-pyrazolo[4,3-b]pyridin-3-amine]
1550	Clc1cc(Nc2n[nH]c3cccnc23)cnc1N1CCCC1 [Example 31, N-(5-chloro-6-(pyrrolidin-l-yl)pyridin-3-yl)-1H-pyrazolo[4,3-b]pyridin-3-amine]
9990	Clc1cncc(Nc2n[nH]c3cccnc23)n1 [Example 32, N-(6-chloropyrazin-2-yl)-1H-pyrazolo[4,3-b]pyridin-3-amine]
7380	Cc1cncc(Nc2n[nH]c3cccnc23)c1 [Example 33, N-(5-methylpyridin-3-yl)-1H-pyrazolo[4,3-b]pyridin-3-amine]
597	Fc1ncc(Cl)cc1Nc1n[nH]c2cccnc12 [Example 34, N-(5-chloro-2-fluoropyridin-3-yl)-1H-pyrazolo[4,3-b]pyridin-3-amine]
753	CN1C(=O)N(c2ccc(Nc3n[nH]c4cccnc34)cc2Cl)C(=O)C1C(C)(C)C (stereo not drawn) [Example 35, 3-(4-((1H-pyrazolo[4,3-b]pyridin-3-yl)amino)-2-chlorophenyl)-5-(tert-butyl)-1-methylimidazolidine-2,4-dione]
217	Oc1ccc(Nc2n[nH]c3cccnc23)cc1Cl [Example 36, 4-((1H-pyrazolo[4,3-b]pyridin-3-yl)amino)-2-chlorophenol]
177	Cc1cc(C)cc(Nc2n[nH]c3cccnc23)c1 [Example 37, N-(3,5-dimethylphenyl)-1H-pyrazolo[4,3-b]pyridin-3-amine]
3880	O=C(c1cccc(C(F)(F)F)c1)c1ccc(Nc2n[nH]c3cccnc23)cc1Cl [Example 38, (4-((1H-pyrazolo[4,3-b]pyridin-3-yl)amino)-2-chlorophenyl)(3-(trifluoromethyl)phenyl)methanone]
8990	c1cnc2c(Nc3cncnc3)n[nH]c2c1 [Example 39, N-(pyrimidin-5-yl)-1H-pyrazolo[4,3-b]pyridin-3-amine]
961	c1ccc2ncc(Nc3n[nH]c4cccnc34)cc2c1 [Example 40, N-(1H-pyrazolo[4,3-b]pyridin-3-yl)quinolin-3-amine]
1180	Fc1ccc(Nc2n[nH]c3scnc23)cc1Cl [Example 41, N-(3-chloro-4-fluorophenyl)-1H-pyrazolo[4,3-d]thiazol-3-amine]
721	Clc1cc(Nc2n[nH]c3cccnc23)cc(Cl)c1Cl [Example 42, N-(3,4,5-trichlorophenyl)-1H-pyrazolo[4,3-b]pyridin-3-amine]
410	Fc1c(Cl)cc(Nc2n[nH]c3cccnc23)cc1Cl [Example 43, N-(3,5-dichloro-4-fluorophenyl)-1H-pyrazolo[4,3-b]pyridin-3-amine]
12800	Cc1ccc(NC(=O)Nc2n[nH]c3cccnc23)cc1C [Example 44, 1-(3,4-dimethylphenyl)-3-(1H-pyrazolo[4,3-b]pyridin-3-yl)urea]
10000	c1cnc2c(Nc3nccs3)n[nH]c2c1 [Example 45, N-(1H-pyrazolo[4,3-b]pyridin-3-yl)thiazol-2-amine]
6840	Cc1cc(NC(=O)Nc2n[nH]c3cccnc23)ccc1F [Example 46, 1-(4-fluoro-3-methylphenyl)-3-(1H-pyrazolo[4,3-b]pyridin-3-yl)urea]
